By pEC50 is commonly meant the negative decadic logarithm of the EC50, by convention in mol/L.

This note sets out measurements from patent publication US12037344B2, “NLRP3 modulators” (INNATE TUMOR IMMUNITY, INC., priority 2018, dated 2024).

One experiment deals with T1, TLR7 (Homo sapiens, UniProt Q9NYK1).
T1 construct: human HEK-Blue cells co-expressing a TLR7 or TLR8 gene
T1 sequence (Q9NYK1 27-1049): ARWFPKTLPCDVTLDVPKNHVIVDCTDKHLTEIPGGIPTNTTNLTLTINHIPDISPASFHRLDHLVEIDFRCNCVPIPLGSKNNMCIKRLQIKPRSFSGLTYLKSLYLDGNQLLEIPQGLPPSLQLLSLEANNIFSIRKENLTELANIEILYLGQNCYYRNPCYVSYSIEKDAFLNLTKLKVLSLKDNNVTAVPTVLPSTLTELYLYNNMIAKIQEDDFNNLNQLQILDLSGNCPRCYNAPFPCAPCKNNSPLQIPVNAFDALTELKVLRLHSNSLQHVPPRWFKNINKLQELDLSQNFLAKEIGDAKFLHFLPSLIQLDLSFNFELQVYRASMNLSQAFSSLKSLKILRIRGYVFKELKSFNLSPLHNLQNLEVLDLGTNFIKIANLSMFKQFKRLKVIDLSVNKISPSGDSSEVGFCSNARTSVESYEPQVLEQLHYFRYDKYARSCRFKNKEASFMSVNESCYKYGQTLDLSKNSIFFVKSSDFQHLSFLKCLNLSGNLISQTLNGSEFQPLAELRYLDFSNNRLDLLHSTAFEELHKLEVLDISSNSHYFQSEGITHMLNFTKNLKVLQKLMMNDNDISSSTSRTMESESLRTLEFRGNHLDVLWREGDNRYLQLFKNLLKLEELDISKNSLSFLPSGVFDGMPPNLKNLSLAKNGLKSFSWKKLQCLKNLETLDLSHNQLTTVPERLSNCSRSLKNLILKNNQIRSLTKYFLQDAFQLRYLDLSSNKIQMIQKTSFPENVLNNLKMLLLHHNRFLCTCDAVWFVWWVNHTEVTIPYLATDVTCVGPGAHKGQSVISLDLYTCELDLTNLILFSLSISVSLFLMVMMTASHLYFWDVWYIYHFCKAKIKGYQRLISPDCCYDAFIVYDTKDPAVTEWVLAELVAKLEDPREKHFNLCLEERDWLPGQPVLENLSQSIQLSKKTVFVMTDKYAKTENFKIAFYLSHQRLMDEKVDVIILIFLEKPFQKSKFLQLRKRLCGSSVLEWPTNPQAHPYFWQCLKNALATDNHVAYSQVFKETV
Kind of experiment: In vitro human TLR7 binding reporter assay (HEK-Blue, NF-kB/AP1-inducible SEAP). It counts as cell-based. Particulars: read-out: TLR7 Agonist EC50. In short, it runs like this:
(§1)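 Cells are seeded and grown for 24 h. Compounds or DMSO are then added and incubated 18 h at 37 °C. Quanti-Blue is added, and SEAP is read after thirty minutes. EC50 values are normalized, with RLU from 50 μM reference standard setting 100% Ymax.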
Background: Reporter assays use an easily measured gene product as a stand-in for the process of interest.

A further experiment addresses T2, TLR8 (Homo sapiens, UniProt Q9NR97).
T2 construct: human HEK-Blue cells co-expressing a TLR7 or TLR8 gene
T2 sequence (Q9NR97 27-1041): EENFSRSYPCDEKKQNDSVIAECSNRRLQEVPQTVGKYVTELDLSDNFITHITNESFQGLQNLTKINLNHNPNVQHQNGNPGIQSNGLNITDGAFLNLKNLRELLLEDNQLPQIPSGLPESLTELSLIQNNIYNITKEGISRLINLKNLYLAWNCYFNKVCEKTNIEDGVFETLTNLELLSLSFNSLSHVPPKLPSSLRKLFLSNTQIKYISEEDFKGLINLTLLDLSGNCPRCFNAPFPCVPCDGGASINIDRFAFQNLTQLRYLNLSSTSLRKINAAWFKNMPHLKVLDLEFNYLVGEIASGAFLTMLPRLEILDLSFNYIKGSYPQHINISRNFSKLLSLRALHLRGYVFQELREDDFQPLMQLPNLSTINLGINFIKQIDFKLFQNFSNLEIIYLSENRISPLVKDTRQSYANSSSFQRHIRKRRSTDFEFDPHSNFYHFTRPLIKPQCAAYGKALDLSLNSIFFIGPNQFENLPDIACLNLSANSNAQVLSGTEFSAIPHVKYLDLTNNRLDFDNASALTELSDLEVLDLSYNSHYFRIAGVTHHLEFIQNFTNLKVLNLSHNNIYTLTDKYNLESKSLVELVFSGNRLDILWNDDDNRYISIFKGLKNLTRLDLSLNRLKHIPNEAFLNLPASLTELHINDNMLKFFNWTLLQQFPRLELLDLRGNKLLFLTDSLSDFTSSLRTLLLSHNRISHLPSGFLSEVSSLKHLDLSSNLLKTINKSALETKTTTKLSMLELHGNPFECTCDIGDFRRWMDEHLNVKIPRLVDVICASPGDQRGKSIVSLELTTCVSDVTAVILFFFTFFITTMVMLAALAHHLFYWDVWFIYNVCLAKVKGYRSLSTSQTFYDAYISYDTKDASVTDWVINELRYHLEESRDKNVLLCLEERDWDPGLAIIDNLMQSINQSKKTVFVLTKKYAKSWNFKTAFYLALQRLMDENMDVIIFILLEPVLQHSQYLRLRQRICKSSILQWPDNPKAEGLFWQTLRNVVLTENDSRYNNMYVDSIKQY
Put plainly: In vitro human TLR8 binding reporter assay (HEK-Blue, NF-kB/AP1-inducible SEAP). It counts as cell-based. Particulars: read-out: TLR8 Agonist EC50. In short, it runs like this:
as §1

The subject of the next experiment is THP-1 cells. Put plainly: Measurement of IL-1β production, hTRF protocol (second alternative procedure), THP-1 cells. It counts as cell-based, human. The settings on record: read-out: NLRP3 hILIB EC50. The method, boiled down:
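Compounds, dilution series starting at a final 10 μM, were incubated 2 hours at 37° C with PMA-differentiated THP-1 cells (50 ng/ml overnight; 50,000 cells/well, 2% FBS RPMI). Released IL-1β quantified in supernatant by hTRF kit with 1:40 antibody dilution, 4° C overnight, 665/615 nm ratio.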

Setting [1] is: Homo sapiens, THP-1, IL-1β production, human cells.
Setting [2] is: Homo sapiens, THP-1, IL-1β production, human.

pEC50: −log10 of the molar value. Like-named read-outs stand apart in the source and are kept apart here.

As to `Nc1nc2cc(-c3cc[nH]n3)ccc2c2[nH]c(CN3CC[C@@H](O)C3)cc12` [Example 480], the pEC50 on TLR7 (activity range) was less than 4.00; on TLR8 (activity range), less than 4.00; with THP-1 cells (setting [1]) it was 6.59.

`CC(=O)NC(C)Cn1cc2c(N)nc3cc(-c4ccn[nH]4)ccc3c2n1` (single isomer, unassigned) [Example 300]: the pEC50 was less than 4.00 at TLR7 (activity range class); less than 4.00 at TLR8 (activity range class); 5.13 in the experiment with THP-1 cells (IL-1β production, human).

On to `CC(=O)NCCCn1cc2c(n1)c(N)nc1cc(-c3cc[nH]n3)ccc12` [Example 126], for which the negative-log EC50 (pEC50) at TLR7 (activity range class) was less than 4.00; on TLR8 (activity range class), less than 4.00; in the experiment on THP-1 cells (setting [2]), 5.27.

Turning to `CC(C(=O)NCC1CCOCC1)n1cc2c(N)nc3cc(-c4ccn[nH]4)ccc3c2n1` (stereo not drawn) [Example 566], the negative-log EC50 (pEC50) on TLR7 (activity range) is less than 4.00; at TLR8 (activity range) it was less than 4.00; in the experiment on THP-1 cells (setting [1]), 4.56.

For the compound `Nc1nc2cc(-c3cc[nH]n3)ccc2c2nn(CC(O)CF)cc12` (single isomer, unassigned) [Example 377], the negative logarithm of the EC50 (pEC50) is less than 4.00 on TLR7 (activity range class); less than 4.00 at TLR8 (activity range class); 6.35 in the experiment on THP-1 cells (IL-1β production, human).

With `CNC(=O)C(C)(C)n1cc2c(N)nc3cc(-c4cc[nH]n4)ccc3c2n1` [Example 513], the pEC50 is less than 4.00 at TLR7 (activity range), less than 4.00 on TLR8 (activity range) and 5.89 in the experiment on THP-1 cells (setting [1]).

For the compound `CC(C)NC(=O)CC(C)n1cc2c(N)nc3cc(-c4cc[nH]n4)ccc3c2n1` (stereo not drawn) [Example 615], the negative-log EC50 (pEC50) at TLR7 (activity range) is less than 4.00; on TLR8 (activity range), less than 4.00; in the experiment on THP-1 cells (setting [1]), 4.98.

For `Nc1nc2cc(-c3cc[nH]n3)ccc2c2cn(CCCOc3ccccc3)nc12` [Example 2, 2-(3-phenoxypropyl)-7-(1H-pyrazol-3-yl)-2H-pyrazolo[3,4-c]quinolin-4-amine], the figures for the pEC50 at TLR7 (activity range class), on TLR8 (activity range class) and in the experiment on THP-1 cells (setting [2]) were 4.00 to 4.70, 4.00 to 4.70 and 6.37, respectively.

Take `Nc1nc2cc(-c3cc[nH]n3)ccc2c2c1cnn2Cc1cn[nH]c1` [Example 359]: the results for the negative logarithm of the EC50 (pEC50) at TLR7 (activity range class), at TLR8 (activity range class) and with THP-1 cells (setting [2]) were less than 4.00, less than 4.00 and 5.84, respectively.

Regarding `CCOCCn1cc2c(n1)c(N)nc1cc(-c3ccn[nH]3)ccc12` [Example 190], the pEC50 on TLR7 (activity range class) was less than 4.00; on TLR8 (activity range class), less than 4.00; in the experiment on THP-1 cells (setting [2]), 6.66.

With `COCCN(C)C(=O)C(C)n1cc2c(N)nc3cc(-c4ccn[nH]4)ccc3c2n1` (stereo not drawn) [Example 582], the pEC50 on TLR7 (activity range) is less than 4.00; at TLR8 (activity range), less than 4.00; in the experiment with THP-1 cells (setting [1]) it was 5.48.

In the case of `N#CCCn1cc2c(N)nc3cc(-n4cccn4)ccc3c2n1` [Example 557], the negative logarithm of the EC50 (pEC50) on TLR7 (activity range) was less than 4.00; on TLR8 (activity range) it was less than 4.00; in the experiment on THP-1 cells (setting [1]), 6.38.

Consider `COC(C)Cn1cc2c(N)nc3cc(-c4cc[nH]n4)ccc3c2n1` (single isomer, unassigned) [Example 347], for which the pEC50 on TLR7 (activity range class) is less than 4.00; at TLR8 (activity range class), less than 4.00; with THP-1 cells (IL-1β production, human), 6.52.
